According to ChEMBL document CHEMBL1137686, “Synthesis and anticonvulsant activity of new N-[(4-arylpiperazin-1-yl)-alkyl] derivatives of 3-phenyl-pyrrolidine-2,5-dione” (Eur J Med Chem, 2009):
Activity calls are given as the source filed them. The rule behind the calls is not given here.

Assays:
[1] = tested on: Mus musculus; experiment: Neurotoxicity in CF1 albino mouse assessed as occurance of tremors at 300 mg/kg, ip after 4 hrs by rotarod test; format: toxicity, organism-based; design: dose 300 mg/kg, route intraperitoneal; conditions: in vivo
[2] = tested on: Mus musculus; experiment: Anticonvulsant activity in ip dosed CF1 albino mouse assessed as inhibition of maximal electroshock-induced seizures after 0.5 hrs; format: functional
[3] = tested on: Mus musculus; experiment: Anticonvulsant activity in ip dosed CF1 albino mouse assessed as inhibition of maximal electroshock-induced seizures after 4 hrs; format: functional
[4] = tested on: Mus musculus; experiment: Neurotoxicity in ip dosed CF1 albino mouse assessed as ability to maintain equilibrium for 1 min on […] after 4 hrs by rotarod test; format: toxicity, organism-based; conditions: in vivo
[5] = tested on: Mus musculus; experiment: Neurotoxicity in ip dosed CF1 albino mouse assessed as ability to maintain equilibrium for 1 min on […] after 0.5 hrs by rotarod test; format: toxicity, organism-based; conditions: in vivo
[6] = tested on: Mus musculus; experiment: Anticonvulsant activity in CF1 albino mouse assessed as inhibition of subcutaneous pentylenetetrazole-induced seizures at 100 mg/kg, ip after 4 hrs; format: functional, organism-based; design: dose 100 mg/kg
[7] = tested on: Mus musculus; experiment: Anticonvulsant activity in CF1 albino mouse assessed as inhibition of subcutaneous pentylenetetrazole-induced seizures at 300 mg/kg, ip after 4 hrs; format: functional, organism-based; design: dose 300 mg/kg
[8] = tested on: Mus musculus; experiment: Toxicity in CF1 albino mouse assessed as myoclonic jerks at 100 mg/kg, ip after 4 hrs; format: organism-based; design: dose 100 mg/kg, route intraperitoneal; conditions: in vivo
[9] = tested on: Mus musculus; experiment: Toxicity in CF1 albino mouse assessed as myoclonic jerks at 300 mg/kg, ip after 4 hrs; format: organism-based; design: dose 300 mg/kg, route intraperitoneal; conditions: in vivo
[10] = tested on: Mus musculus; experiment: Anticonvulsant activity in CF1 albino mouse assessed as inhibition of maximal electroshock-induced seizures at 300 mg/kg, ip after 0.5 hrs; format: functional, organism-based; design: dose 300 mg/kg
[11] = tested on: Mus musculus; experiment: Anticonvulsant activity in CF1 albino mouse assessed as inhibition of maximal electroshock-induced seizures at 300 mg/kg, ip after 4 hrs; format: functional, organism-based; design: dose 300 mg/kg
[12] = tested on: Mus musculus; experiment: Neurotoxicity in CF1 albino mouse assessed as ability to maintain equilibrium for 1 min on […] at 300 mg/kg, ip after 4 hrs by rotarod test; format: toxicity, organism-based; design: dose 300 mg/kg, route intraperitoneal; conditions: in vivo
[13] = tested on: Mus musculus; experiment: Neurotoxicity in CF1 albino mouse assessed as ability to grasp rotarod at 300 mg/kg, ip after 0.5 hrs by rotarod test; format: toxicity, organism-based; design: dose 300 mg/kg, route intraperitoneal; conditions: in vivo
[14] = tested on: Mus musculus; experiment: Neurotoxicity in CF1 albino mouse assessed as muscle spasm at 300 mg/kg, po after 0.5 hrs by rotarod test; format: toxicity, organism-based, Muscle tissue; design: dose 300 mg/kg, route oral; conditions: in vivo
[15] = tested on: Mus musculus; experiment: Anticonvulsant activity in CF1 albino mouse assessed as protection against maximal electroshock-induced seizures at 30 mg/kg, po after 1 hr; format: functional
[16] = tested on: Mus musculus; experiment: Anticonvulsant activity in CF1 albino mouse assessed as protection against maximal electroshock-induced seizures at 30 mg/kg, po after 2 hrs; format: functional
[17] = tested on: Mus musculus; experiment: Anticonvulsant activity in CF1 albino mouse assessed as protection against maximal electroshock-induced seizures at 30 mg/kg, po after 4 hrs; format: functional
[18] = tested on: Mus musculus; experiment: Neurotoxicity in CF1 albino mouse assessed as motor impairment at 30 mg/kg, po after 0.25 hrs by rotarod test; format: toxicity, organism-based; design: dose 30 mg/kg, route oral; conditions: in vivo
[19] = tested on: Mus musculus; experiment: Neurotoxicity in CF1 albino mouse assessed as motor impairment at 30 mg/kg, po after 0.5 hrs by rotarod test; format: toxicity, organism-based; design: dose 30 mg/kg, route oral; conditions: in vivo
[20] = tested on: Mus musculus; experiment: Neurotoxicity in CF1 albino mouse assessed as motor impairment at 30 mg/kg, po after 1 hr by rotarod test; format: toxicity, organism-based; design: dose 30 mg/kg, route oral; conditions: in vivo
[21] = tested on: Mus musculus; experiment: Neurotoxicity in CF1 albino mouse assessed as motor impairment at 30 mg/kg, po after 2 hrs by rotarod test; format: toxicity, organism-based; design: dose 30 mg/kg, route oral; conditions: in vivo
[22] = tested on: Mus musculus; experiment: Neurotoxicity in CF1 albino mouse assessed as motor impairment at 30 mg/kg, po after 4 hrs by rotarod test; format: toxicity, organism-based; design: dose 30 mg/kg, route oral; conditions: in vivo
[23] = tested on: Mus musculus; experiment: Anticonvulsant activity in CF1 albino mouse assessed as protection against maximal electroshock-induced seizures at 30 mg/kg, ip after 0.25 hrs; format: functional
[24] = tested on: Mus musculus; experiment: Anticonvulsant activity in CF1 albino mouse assessed as protection against maximal electroshock-induced seizures at 30 mg/kg, ip after 0.5 hrs; format: functional
[25] = tested on: Mus musculus; experiment: Anticonvulsant activity in CF1 albino mouse assessed as protection against maximal electroshock-induced seizures at 30 mg/kg, ip after 1 hr; format: functional
[26] = tested on: Mus musculus; experiment: Anticonvulsant activity in CF1 albino mouse assessed as protection against maximal electroshock-induced seizures at 30 mg/kg, ip after 2 hrs; format: functional
[27] = tested on: Mus musculus; experiment: Anticonvulsant activity in CF1 albino mouse assessed as protection against maximal electroshock-induced seizures at 30 mg/kg, ip after 4 hrs; format: functional
[28] = tested on: Mus musculus; experiment: Neurotoxicity in CF1 albino mouse assessed as motor impairment at 30 mg/kg, ip after 0.25 hrs by rotarod test; format: toxicity, organism-based; design: dose 30 mg/kg, route intraperitoneal; conditions: in vivo
[29] = tested on: Mus musculus; experiment: Neurotoxicity in CF1 albino mouse assessed as motor impairment at 30 mg/kg, ip after 0.5 hrs by rotarod test; format: toxicity, organism-based; design: dose 30 mg/kg, route intraperitoneal; conditions: in vivo
[30] = tested on: Mus musculus; experiment: Neurotoxicity in CF1 albino mouse assessed as motor impairment at 30 mg/kg, ip after 4 hrs by rotarod test; format: toxicity, organism-based; design: dose 30 mg/kg, route intraperitoneal; conditions: in vivo
[31] = tested on: Mus musculus; experiment: Neurotoxicity in CF1 albino mouse assessed as death at 300 mg/kg, ip after 0.5 hrs by rotarod test; format: toxicity, organism-based; design: dose 300 mg/kg, route intraperitoneal; conditions: in vivo
[32] = tested on: Mus musculus; experiment: Neurotoxicity in CF1 albino mouse assessed as occurance of tremors at 300 mg/kg, ip after 0.5 hrs by rotarod test; format: toxicity, organism-based; design: dose 300 mg/kg, route intraperitoneal; conditions: in vivo
[33] = tested on: Mus musculus; experiment: Anticonvulsant activity in CF1 albino mouse assessed as protection against maximal electroshock-induced seizures at 30 mg/kg, po after 0.25 hrs; format: functional
[34] = tested on: Mus musculus; experiment: Anticonvulsant activity in CF1 albino mouse assessed as protection against maximal electroshock-induced seizures at 30 mg/kg, po after 0.5 hrs; format: functional
[35] = tested on: Mus musculus; experiment: Neurotoxicity in CF1 albino mouse assessed as motor impairment at 30 mg/kg, ip after 1 hr by rotarod test; format: toxicity, organism-based; design: dose 30 mg/kg, route intraperitoneal; conditions: in vivo
[36] = tested on: Mus musculus; experiment: Neurotoxicity in CF1 albino mouse assessed as motor impairment at 30 mg/kg, ip after 2 hrs by rotarod test; format: toxicity, organism-based; design: dose 30 mg/kg, route intraperitoneal; conditions: in vivo
[37] = tested on: Mus musculus; experiment: Neurotoxicity in CF1 albino mouse assessed as ability to maintain equilibrium for 1 min on […] at 300 mg/kg, ip after 0.5 hrs by rotarod test; format: toxicity, organism-based; design: dose 300 mg/kg, route intraperitoneal; conditions: in vivo

COc1ccccc1N1CCN(CN2C(=O)CC(c3ccccc3C(F)(F)F)C2=O)CC1 (centres undefined)
Activity [1]: Toxic | Activity [2]: 300 mg/kg | Activity [3]: 300 mg/kg | Activity [4]: 100 mg/kg | Activity [5]: 100 mg/kg | Activity [6]: Active | Activity [7]: Active | Activity [8]: Toxic | Activity [9]: Toxic

COc1ccccc1N1CCN(CCN2C(=O)CC(c3ccccc3C(F)(F)F)C2=O)CC1 (centres undefined)
Activity [10]: inactive | Activity [11]: inactive | Activity [5]: 300 mg/kg | Activity [12]: Non-toxic | Activity [13]: Toxic | Activity [14]: Toxic

Cc1ccccc1C1CC(=O)N(CN2CCN(c3cccc(C(F)(F)F)c3)CC2)C1=O (centres undefined)
Activity [15]: 50% | Activity [16]: 25% | Activity [17]: 50% | Activity [18]: 50% | Activity [19]: 25% | Activity [20]: Non-toxic | Activity [21]: Non-toxic | Activity [22]: Non-toxic | Activity ([23]; route intraperitoneal): 50% | Activity ([24]; route intraperitoneal): 50% | Activity ([25]; route intraperitoneal): 100% | Activity ([26]; route intraperitoneal): 50% | Activity ([27]; route intraperitoneal): 50% | Activity [28]: Toxic | Activity [29]: Toxic | Activity [30]: Non-toxic | Activity [2]: 30 mg/kg | Activity [3]: 30 mg/kg | Activity [5]: 300 mg/kg | Activity [12]: Non-toxic | Activity [13]: Toxic | Activity [31]: Toxic | Activity [32]: Toxic | Activity [33]: inactive | Activity [34]: inactive

Cc1ccccc1C1CC(=O)N(CCN2CCN(c3cccc(Cl)c3)CC2)C1=O (centres undefined)
Activity [15]: 25% | Activity [16]: inactive | Activity [17]: 50% | Activity [18]: Non-toxic | Activity [19]: Non-toxic | Activity [20]: Non-toxic | Activity [21]: Non-toxic | Activity [22]: Non-toxic | Activity [23]: inactive | Activity [24]: inactive | Activity [25]: inactive | Activity [26]: inactive | Activity [27]: inactive | Activity [28]: Non-toxic | Activity [29]: Non-toxic | Activity [35]: Non-toxic | Activity [36]: Non-toxic | Activity [30]: Non-toxic | Activity [3]: 100 mg/kg | Activity [10]: inactive | Activity [37]: Non-toxic | Activity [12]: Non-toxic | Activity [33]: inactive | Activity [34]: inactive
